Here are results for 5 molecules from article PMC10269165 (Antimicrobial Agents and Chemotherapy, 2023).

SMILES strings stand for the structures.

The data set concerns HCT-8 cells. The data set can be described thus: WST-1 cytotoxicity assay in HCT-8 cells. Format: cell-based, human. The conditions noted are these: 24 h, read-out: Mean IC50 ± SEM, Cytotoxicity. As to the method: Compounds were tested for cytotoxicity in human ileocecal colorectal adenocarcinoma cells (HCT-8) (ATCC CCL-244; RRID:CVCL_2478) by using the cell proliferation reagent WST-1 (Roche) according to the manufacturer’s protocol. The WST-1 assay is a quantitative colorimetric assay for measurement of metabolically active cells. This assay is based on the reduction of the tetrazolium salt (WST-1) by viable cells. About 5 × 10^4 HCT-8 cells were seeded per well in 96-well plates and grown overnight in 200 μL of RPMI 1640 medium (without phenol red; Gibco) supplemented with 2.5 g/L of glucose, 1 mM sodium pyruvate, 1.5 g/L of sodium bicarbonate, 10% heat-inactivated FBS (Gibco), and 1× antibiotic-antimycotic (Gibco) at 37°C with 5% CO2 in a humidified incubator. Upon reaching 80 to 90% confluence, cells were treated with various concentrations of the test compounds for 24 h. Control wells received equivalent volumes of DMSO used in the reconstituted compounds. After 24 h of culture, 10 μL of the WST-1 reagent was added to each well, and the plates were incubated in the dark for 1 h at 37°C with 5% CO2. The plates were well agitated, and 150 μL of the medium from each well was transferred to a new clear flat-bottomed black 96-well plate (Corning). The absorbance was read at a test wavelength of 440 nm and a reference wavelength of 690 nm using a multimode microplate reader (Spectra Max iD3; Molecular Devices, USA). All of the reactions were prepared in triplicate. The dose-response curves were generated by nonlinear regression analysis with GraphPad PRISM software using control-normalized data to determine the half-maximal cytotoxicity (IC50) concentrations.
On the technique in general: Tetrazolium assays rely on reduction of a dye to a coloured formazan, in cell work by metabolically active cells.
As to `COc1ccc(-c2c(C)c(C(=O)O)nc(-c3ccc4c(O)c(OC)c5c(c4n3)=NC(C)(C)N=5)c2N)c(O)c1OC` [NSC62709], the 50% inhibitory concentration (IC50) turned out to be 299 ± 6.27 µM.
For `COc1cc(C)c2c(c1C=O)Oc1c(c(C)c(O)c3c1C(O)OC3=O)OC2=O` (centres unmarked) [NSC87511], the concentration for half-maximal inhibition (IC50) was 172 ± 8.68 µM.
Take `CO[C@H]1/C=C/O[C@@]2(C)Oc3c(C)c(O)c4c(O)c(cc(O)c4c3C2=O)NC(=O)/C(C)=C\C=C\[C@H](C)[C@H](O)[C@@H](C)[C@@H](O)[C@@H](C)[C@H](OC(C)=O)[C@@H]1C` [NSC133100]: the IC50 is 102 ± 16.6 µM.
With `CO[C@@H]1/C=C\O[C@]2(C)Oc3c(C)c(O)c4c(O)c(c(CN(C)C)c(O)c4c3C2=O)NC(=O)/C(C)=C\C=C[C@@H](C)[C@@H](O)[C@H](C)[C@@H](O)[C@H](C)[C@H](OC(C)=O)[C@@H]1C` [NSC145612], the IC50 stood at 302 ± 9.33 µM.
The result for `CO[C@@H]1/C=C/O[C@@]2(C)Oc3c(C)c(O)c4c(c3C2=O)C(=N[C@@H]2CC[C@@H](O)O[C@H]2C)C=C(NC(=O)/C(C)=C\C(=O)[C@@H]2C[C@@H]2[C@H](O)[C@@H](C)[C@@H](O)[C@@H](C)[C@H](OC(C)=O)[C@@H]1C)C4=O` [NSC177383] reads 85.5 ± 2.77 µM.

For orientation: IC50 means the concentration at which inhibition is half-maximal.
